# Assay results reported in paper PMC8408311 (Diabetologia, 2021).
# Read-outs that look alike come from different tables or passages of the source.
# Legend:
# [1] = Swedish registry cohorts, causal random forest, change after 6 months versus SU; type: in vivo, human; conditions: after 6 months treatment
# [2] = 3-year prospective observational study of quadruple oral therapy in T2DM; type: in vivo, human; conditions: empagliflozin 25 mg/day, dapagliflozin 10 mg/day
# [3] = single dose 50 mg
# [4] = tested on: insulin-naive patients with type 2 diabetes; assay: Icodec phase 2 titration trial, CGM post hoc; type: in vivo, human; conditions: titration B, weeks 15&16
# [5] = Insulin icodec titration trial, CGM hypoglycaemia duration, insulin-naive T2D; type: in vivo, human
# [6] = type: in vivo, human
# [7] = tested on: human hTERT-immortalized adipose tissue-derived MSCs; assay: PPARG splicing in adipose tissue-derived MSCs treated with recombinant cytokines; type: cell-based
# C57BL/6J mice = assay: Pparg splicing in epididymal adipose tissue of LPS-injected mice; type: in vivo, mouse; conditions: inflamed adipose tissue, n=6
compound,measurement,setting,value
CCOc1ccc(Cc2cc([C@@H]3O[C@H](CO)[C@@H](O)[C@H](O)[C@H]3O)ccc2Cl)cc1 [dapagliflozin],Average treatment effect on change in HbA1c compared to SU,[1],"-1.10 [-1.92, -0.27] mmol/mol"
same,Change in body weight at 3 years,[2],-1.0 ± 3.3 kg
same,Change in fasting plasma glucose at 3 years,[2],-47.4 ± 61.7 mg/dL
same,Absolute risk reduction for the primary outcome,"UACR >3500 mg/g, 95%CI 3.0, 24.5",13.8%
same,Absolute risk reduction for the primary outcome,"UACR >1000 to ≤3500 mg/g, 95%CI 3.6, 10.1",6.9%
same,adverse events,[3],no adverse events
Insulin icodec,patients with >70% TIR and TBR<3.9 mmol/L <4%,[4],80.0%
same,"Overall hypoglycaemic episode duration, median (IQR)","[5]; titration A (4.4-7.2 mmol/L; ±21 U/week), CGM <3.9 mmol/L for at least 15 min","35.0 (20.0, 70.0) min"
same,"Overall hypoglycaemic episode duration, median (IQR)",[5]; titration B (4.4-7.2 mmol/L ±28 U/week),"35.0 (20.0, 70.0) min"
same,"Overall hypoglycaemic episode duration, median (IQR)",[5]; titration C (3.9-6.0 mmol/L ±28 U/week),"39.0 (24.0, 70.0) min"
same,"Overall hypoglycaemic episode duration, median (IQR)",[6]; with 100% loading dose,"40.0 (20.0, 75.0) min"
same,"Overall hypoglycaemic episode duration, median (IQR)",[6]; without loading dose,"40.0 (25.0, 80.0) min"
TNFα,Increase of PpargΔ5/cPparg ratio,[7],2.5 fold
lipopolysaccharides [LPS],Increase of PpargΔ5/cPparg ratio,C57BL/6J mice,3.5 fold
